{
  "source": "paper PMC10244169",
  "about": "“Psychedelics promote plasticity by directly binding to BDNF receptor TrkB” (Nature Neuroscience, 2023)",
  "key": {"TrkB [1]": {"target": "T1, TrkB (Rattus norvegicus, UniProt Q63604)", "T1 construct": "expressed in transfected cells; host or cells: HEK293T", "T1 sequence (Q63604 32-821)": "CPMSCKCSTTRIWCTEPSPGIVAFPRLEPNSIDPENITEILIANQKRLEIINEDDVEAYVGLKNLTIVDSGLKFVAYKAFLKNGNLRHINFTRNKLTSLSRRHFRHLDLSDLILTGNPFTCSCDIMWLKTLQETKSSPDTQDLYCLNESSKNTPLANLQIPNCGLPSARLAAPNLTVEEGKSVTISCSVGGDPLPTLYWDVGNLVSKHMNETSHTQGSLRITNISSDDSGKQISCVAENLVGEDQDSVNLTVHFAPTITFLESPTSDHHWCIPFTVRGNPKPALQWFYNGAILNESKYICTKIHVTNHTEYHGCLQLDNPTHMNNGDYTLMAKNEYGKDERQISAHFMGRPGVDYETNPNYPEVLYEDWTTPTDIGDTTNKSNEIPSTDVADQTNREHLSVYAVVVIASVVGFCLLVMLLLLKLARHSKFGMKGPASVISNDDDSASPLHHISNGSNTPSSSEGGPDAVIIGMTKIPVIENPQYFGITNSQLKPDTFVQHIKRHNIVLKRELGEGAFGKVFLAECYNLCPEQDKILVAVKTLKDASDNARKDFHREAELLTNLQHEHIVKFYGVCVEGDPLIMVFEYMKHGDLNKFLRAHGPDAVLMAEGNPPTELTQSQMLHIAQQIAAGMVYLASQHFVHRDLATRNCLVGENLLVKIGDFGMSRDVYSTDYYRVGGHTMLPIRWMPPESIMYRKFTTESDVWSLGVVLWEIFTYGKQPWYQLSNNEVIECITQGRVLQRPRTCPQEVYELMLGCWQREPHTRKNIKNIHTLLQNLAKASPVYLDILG", "experiment": "biochemical", "type": "binding", "settings": "for displacement of ^3H-LSD from TrkB: 1 nM to 10 µM of drug; for K (one phase exponential decay, best-fit) / Plateau (one phase exponential decay, best-fit) / Span (one phase exponential decay, best-fit): ext fig 1h"}, "[2]": {"settings": "Supplementary Table 3 legend; source not stated; cited from earlier work"}, "[3]": {"system": "dendritic arbor complexity of neuronal cultures", "experiment": "Dendritogenesis (Sholl analysis) in neuronal cultures (WT and Y433F^+/−)", "type": "cell-based, mouse", "settings": "for e6e group mean (dendritogenesis, Sholl analysis): BDNF; for e6e Mean Diff. (Veh. minus BDNF): uncorrected Fisher's LSD", "procedure": "In a separate set of experiments to study the effects of extracellular BDNF and 5-HT2A activation, cultures were also pretreated for 10 min with TrkB.FC (200 ng ml^−1) or M100907 (100 nM), respectively. Similar to treatment with the psychedelics, TrkB.FC and M100907 pretreatments were administered in cumulative doses and remained in the medium for the rest of the experiment. At DIV7, neurons were pre-incubated for 1 h with […] MgCl2 to prevent excitotoxicity, then neurons were transfected for the heterologous expression of mCherry. To minimize any possible interference of the transfection protocol upon the drug effect, transfection was done in the morning while treatment with psychedelics was always added in the evening. Twenty-four hours after transfection, neurons were fixed with 4% PFA for 20 min at room temperature, washed in PBS-T, blocked for 30 min with 3% BSA in PBS-T and incubated with chicken anti-MAP2 (Abcam, ab5392; 1:5,000, 1 h, room temperature). Then, coverslips were washed in PBS-T and incubated with Alexa Fluor 647-conjugated antibody goat anti-chicken (Invitrogen, A-21449; 1:1,000, 1 h, room temperature). Next, coverslips were washed in PBS-T and MilliQ water, and mounted in Dako fluorescence mounting medium (Agilent, S302380-2). Ten optical sections with a Z-step of 1.3 μm were acquired using a Zeiss LSM 710 confocal microscope with a LCI Plan/Neofluar 25×/0.8 lmm Korr DIC M27 objective. In the mCherry channel, the center of the soma was manually assigned and the number of dendritic intersections at fixed distances (every 5 μm) from the soma was automatically counted using the Sholl analysis plugin of ImageJ."}, "TrkB [4]": {"system": "TrkB", "experiment": "Western blot of TrkB protein expression in N2a cells", "type": "cell-based", "settings": "WT and Y433F^+/−", "procedure": "In a separate set of experiments to examine the effect of 5-HT2A activation, M100907 (100 nM) was administered as a 10 min pretreatment and remained in the medium for the rest of the experiment. Next, cells were lysed and centrifuged. […] The co-immunoprecipitation was carried out as previously described[11],[23],[24] with minor modifications. Briefly, Magnetic Dynabeads Protein G (Invitrogen, 10004D) were coated with anti-TrkB antibody (R&D Systems, AF1494) at 200 ng of antibody per 1 µl of beads in rotation (2 h, 4 °C). Finally, lysates were mixed with the coated beads (100 µg of total protein per 15 µl of beads) and incubated in rotation (overnight, 4 °C).\nProteins were separated according to their molecular weight by SDS–PAGE and transferred to a polyvinylidene fluoride membrane. Membranes were incubated with the following primary antibodies (all 1:1,000 in 3% BSA in TBS-T, overnight, 4 °C): anti-TrkB (R&D Systems, AF1494), anti-β-actin (Sigma-Aldrich, A1978), anti-phospho-mTOR (Cell Signaling Technology, 5536S), anti-phospho-p44/42 MAPK (Erk1/2) (Cell Signaling Technology, 9106S), anti-mTOR (Cell Signaling Technology, 2972S) and anti-p44/42 MAPK (Erk1/2) (Cell Signaling Technology, 9102S). […] Protein bands were visualized using enhanced chemiluminescent substrate (Thermo Scientific, 32132, ECL Plus) and imaged with a charge-coupled device camera (G:BOX, Syngene)."}, "[5]": {"target": "the molecule itself", "experiment": "NMR titration; 1H,15N-HSQC spectra of TrkB TMD in DMPC/DHPC bicelles at various lipid-to-protein ratios, 40 °C, pH 6.0; monomer to dimer"}},
  "data": [
    {"molecule": "C=CCN1C[C@H](C(=O)N(CCCN(C)C)C(=O)NCC)C[C@@H]2c3cccc4[nH]cc(c34)C[C@H]21", "note": "[cabergoline]", "values": [
      {"measurement": "displacement of ^3H-LSD from TrkB", "setting": "TrkB [1]", "value": "fail to displace ^3H-LSD"},
      {"measurement": "K (one phase exponential decay, best-fit)", "setting": "TrkB [1]", "value": 776405},
      {"measurement": "Plateau (one phase exponential decay, best-fit)", "setting": "TrkB [1]", "value": 113.3},
      {"measurement": "Span (one phase exponential decay, best-fit)", "setting": "TrkB [1]", "value": -10.49},
      {"measurement": "pKa", "setting": "[2]", "value": 6.22}
    ]},
    {"molecule": "BDNF: Brain-derived neurotrophic factor", "values": [
      {"measurement": "e6f Sholl profile, mean", "setting": "[3]; WT + BDNF, distance from soma 10 µm", "value": 6.929},
      {"measurement": "e6f Sholl profile, mean", "setting": "[3]; WT + BDNF, distance from soma 15 µm", "value": 9.643},
      {"measurement": "e6f Sholl profile, mean", "setting": "[3]; WT + BDNF, distance from soma 20 µm", "value": 7.929},
      {"measurement": "e6f Sholl profile, mean", "setting": "[3]; WT + BDNF, distance from soma 25 µm", "value": 7.929},
      {"measurement": "e6f Sholl profile, mean", "setting": "[3]; WT + BDNF, distance from soma 30 µm", "value": 6},
      {"measurement": "e6f Sholl profile, mean", "setting": "[3]; WT + BDNF, distance from soma 35 µm", "value": 4.5},
      {"measurement": "e6f Sholl profile, mean", "setting": "[3]; WT + BDNF, distance from soma 40 µm", "value": 3.857},
      {"measurement": "e6f Sholl profile, mean", "setting": "[3]; WT + BDNF, distance from soma 45 µm", "value": 3.571},
      {"measurement": "e6f Sholl profile, mean", "setting": "[3]; WT + BDNF, distance from soma 50 µm", "value": 2.714},
      {"measurement": "e6f Sholl profile, mean", "setting": "[3]; WT + BDNF, distance from soma 55 µm", "value": 2.429},
      {"measurement": "e6f Sholl profile, mean", "setting": "[3]; WT + BDNF, distance from soma 60 µm", "value": 2.786},
      {"measurement": "e6f Sholl profile, mean", "setting": "[3]; WT + BDNF, distance from soma 65 µm", "value": 2.643},
      {"measurement": "e6f Sholl profile, mean", "setting": "[3]; WT + BDNF, distance from soma 70 µm", "value": 3.143},
      {"measurement": "e6f Sholl profile, mean", "setting": "[3]; WT + BDNF, distance from soma 75 µm", "value": 2.929},
      {"measurement": "e6f Sholl profile, mean", "setting": "[3]; WT + BDNF, distance from soma 80 µm", "value": 2.714},
      {"measurement": "e6f Sholl profile, mean", "setting": "[3]; WT + BDNF, distance from soma 85 µm", "value": 2.786},
      {"measurement": "e6f Sholl profile, mean", "setting": "[3]; WT + BDNF, distance from soma 90 µm", "value": 2.286},
      {"measurement": "e6f Sholl profile, mean", "setting": "[3]; WT + BDNF, distance from soma 95 µm", "value": 1.857},
      {"measurement": "e6f Sholl profile, mean", "setting": "[3]; WT + BDNF, distance from soma 100 µm", "value": 1.857},
      {"measurement": "e6e group mean (dendritogenesis, Sholl analysis)", "setting": "[3]; WT neuronal cultures, n=14", "value": 78.5},
      {"measurement": "e6e Mean Diff. (Veh. minus BDNF)", "setting": "[3]; WT:Veh. vs. WT:BDNF", "value": -30.1},
      {"measurement": "e6f Sholl profile, mean", "setting": "[3]; Y433F+/- + BDNF, distance from soma 10 µm", "value": 8.0625},
      {"measurement": "e6f Sholl profile, mean", "setting": "[3]; Y433F+/- + BDNF, distance from soma 15 µm", "value": 9.4375},
      {"measurement": "e6f Sholl profile, mean", "setting": "[3]; Y433F+/- + BDNF, distance from soma 20 µm", "value": 10.25},
      {"measurement": "e6f Sholl profile, mean", "setting": "[3]; Y433F+/- + BDNF, distance from soma 25 µm", "value": 8.8125},
      {"measurement": "e6f Sholl profile, mean", "setting": "[3]; Y433F+/- + BDNF, distance from soma 30 µm", "value": 8.1875},
      {"measurement": "e6f Sholl profile, mean", "setting": "[3]; Y433F+/- + BDNF, distance from soma 35 µm", "value": 6.3125},
      {"measurement": "e6f Sholl profile, mean", "setting": "[3]; Y433F+/- + BDNF, distance from soma 40 µm", "value": 5.375},
      {"measurement": "e6f Sholl profile, mean", "setting": "[3]; Y433F+/- + BDNF, distance from soma 45 µm", "value": 5.1875},
      {"measurement": "e6f Sholl profile, mean", "setting": "[3]; Y433F+/- + BDNF, distance from soma 50 µm", "value": 3.9375},
      {"measurement": "e6f Sholl profile, mean", "setting": "[3]; Y433F+/- + BDNF, distance from soma 55 µm", "value": 3.6875},
      {"measurement": "e6f Sholl profile, mean", "setting": "[3]; Y433F+/- + BDNF, distance from soma 60 µm", "value": 3.25},
      {"measurement": "e6f Sholl profile, mean", "setting": "[3]; Y433F+/- + BDNF, distance from soma 65 µm", "value": 2.5625},
      {"measurement": "e6f Sholl profile, mean", "setting": "[3]; Y433F+/- + BDNF, distance from soma 70 µm", "value": 2.5},
      {"measurement": "e6f Sholl profile, mean", "setting": "[3]; Y433F+/- + BDNF, distance from soma 75 µm", "value": 1.875},
      {"measurement": "e6f Sholl profile, mean", "setting": "[3]; Y433F+/- + BDNF, distance from soma 80 µm", "value": 2},
      {"measurement": "e6f Sholl profile, mean", "setting": "[3]; Y433F+/- + BDNF, distance from soma 85 µm", "value": 1.625},
      {"measurement": "e6f Sholl profile, mean", "setting": "[3]; Y433F+/- + BDNF, distance from soma 90 µm", "value": 1.4375},
      {"measurement": "e6f Sholl profile, mean", "setting": "[3]; Y433F+/- + BDNF, distance from soma 95 µm", "value": 1.75},
      {"measurement": "e6f Sholl profile, mean", "setting": "[3]; Y433F+/- + BDNF, distance from soma 100 µm", "value": 1.3125},
      {"measurement": "e6e group mean (dendritogenesis, Sholl analysis)", "setting": "[3]; Y433F+/- neuronal cultures, n=16", "value": 87.56},
      {"measurement": "e6e Mean Diff. (Veh. minus BDNF)", "setting": "[3]; Y433F+/-:Veh. vs. Y433F+/-:BDNF", "value": -34.03},
      {"measurement": "dendritic arbor complexity", "setting": "[3]; cultures from WT mice", "value": "increases dendritic arbor complexity"},
      {"measurement": "dendritic arbor complexity", "setting": "[3]; cultures from Y433F^+/− mice", "value": "increased dendritic arbor complexity"},
      {"measurement": "total TrkB expression", "setting": "TrkB [4]", "value": "No differences in total TrkB expression"}
    ]},
    {"molecule": "CN1C[C@H](C(=O)N[C@]2(C)O[C@@]3(O)[C@@H]4CCCN4C(=O)[C@H](Cc4ccccc4)N3C2=O)C[C@@H]2c3cccc4[nH]cc(c34)C[C@H]21", "note": "[dihydroergotamine]", "values": [
      {"measurement": "displacement of ^3H-LSD from TrkB", "setting": "TrkB [1]", "value": "fail to displace ^3H-LSD"},
      {"measurement": "K (one phase exponential decay, best-fit)", "setting": "TrkB [1]", "value": "5.40E+07"},
      {"measurement": "Plateau (one phase exponential decay, best-fit)", "setting": "TrkB [1]", "value": 93.57},
      {"measurement": "Span (one phase exponential decay, best-fit)", "setting": "TrkB [1]", "value": 15.09},
      {"measurement": "pKa", "setting": "[2]", "value": 6.75}
    ]},
    {"molecule": "TDKTGREHLSVYAVVVIASVVGFCLLVMLFLLKLARHSKFGMKG (domain or fragment, UniProt Q16620 423-466, looked up, human TrkB, transmembrane residues T423-G466, UniProt Q16620; 15N- or 15N,13C-labelled; Cloned by NdeI and HindIII into pGEMEX1)", "note": "[TrkB TMD (transmembrane residues of human TrkB, T423-G466)]", "values": [
      {"measurement": "binding result", "setting": "[5]", "value": "binds"}
    ]}
  ]
}
